From patent US6552192B1, “Substituted nitrogen heterocyclic derivatives and pharmaceutical use thereof” (Ustau Experimentalni Botaniky AV-CR, priority 1999, dated 2003)
Like-named read-outs stand apart in the source and are kept apart here.

Key:
[1] = test system: normal human lymphocytes, spontaneous proliferation; test: Spontaneous proliferation of lymphocytes, 3H-thymidine incorporation; format: cell-based; conditions: Lymphocyte, 72 hours, unstimulated lymphocytes
Description: (§1) Human heparinized peripheral blood was obtained from healthy volunteers by cubital vein punction.
(§2) The cells were diluted at target density of 1.100.000 cells/ml were added by pipet (180 μl) into 96/well microtiter plates. Four-fold dilutions of the intended test concentration were added at time zero in 20 μl aliquots to the microtiter plate wells. Usually, test compound was evaluated at six 4-fold dilutions. […] Incubations of cells with test compounds lasted for 72 hours at 37° C., in 5% CO2 atmosphere and 100% humidity. At the end of incubation period, the cells were assayed by using the [^3H]-TdR:
(§3) Cell cultures were incubated with […] (20 μl of stock solution 500 μCi/ml) per well for 6 hours at 37° C. and 5% CO2. The automated cell harvester was used to lyse cells in water and adsorb the DNA onto glass-fiber filters in the format of microtiter plate. The DNA incorporated [^3H]-TdR was retained on the filter while unincorporated material passes through. The filters were dried at room temperature overnight, sealed into a sample bag with 10-12 ml of scintillant. The amount of [^3]H-TdR present in each filter (in CCPM) was determined by scintillation counting in a Betaplate liquid scintillation counter. The effective dose of immunosuppressant (ED) was calculated using the following equotation: ED=(CCPMdrug exposed well/mean CCPMcontrol wells)×100%.

[2] = test system: normal human lymphocytes, mitogen activated proliferation; test: Mitogen (concanavalin A) activated proliferation of lymphocytes, 3H-thymidine incorporation; format: cell-based; conditions: Lymphocyte, 72 hours
Description: as §1, §2, §3

[3] = test system: T-lymphoblastic leukemia cell line CEM; test: In vitro cytotoxicity, MTT assay, CEM; format: cell-based; conditions: Homo sapiens, 72 hours
Source text: (§4) One of the parameters used, as the basis for colorimetric assays, is the metabolic activity of viable cells. For example, a microtiter assay, which uses the tetrazolium salt MTT, is now widely used to quantitate cell proliferation and cytotoxicity. For instance, this assay is used in drug screening programs and in chemosensitivity testing. Because only metabolically active cells cleave tetrazolium salts, these assays detect viable cells exclusively. In the case of MTT assay, yellow soluble tetrazolium salt is reduced to coloured water-insoluble formazan salt. After it is solubilized, the formazan formed can easily and rapidly be quantified in a conventional ELISA plate reader at 570 nm (maximum absorbance). The quantity of reduced formazan corresponds to number of vital cells in the culture.
(§5) The cells were maintained in Nunc/Corning 80 cm^2 plastic tissue culture flasks and cultured in cell culture medium (DMEM with 5 g/l glucose, 2 mM glutamine, 100 U/ml penicillin, 100 μg/ml streptomycin, 10% fetal calf serum and sodium bicarbonate).
(§6) The cell suspensions that were prepared and diluted according to the particular cell type and the expected target cell density (2.500-30.000 cells per well based on cell growth characteristics) were added by pipette (80 μl) into 96/well microtiter plates. Inoculates were allowed a pre-incubation period of 24 hours at 37° C. and 5% CO2 for stabilisation. Four-fold dilutions of the intended test concentration were added at time zero in 20 μl aliquots to the microtiter plate wells. Usually, test compound was evaluated at six 4-fold dilutions. […] All drug concentrations were examined in duplicates. Incubations of cells with the test compounds lasted for 72 hours at 37° C., in 5% CO2 atmosphere and 100% humidity. At the end of incubation period, the cells were assayed by using the MTT. Ten microliters of the MTT stock solution were pipetted into each well and incubated further for 1-4 hours. […] The optical density (OD) was measured at 540 nm with the Labsystem iEMS Reader MF (UK). The tumour cell survival (TCS) was calculated using the following equitation: TCS=(ODdrug exposed well/mean ODcontrol wells)×100%. The TCS50 value, the drug concentration lethal to 50% of the tumour cells, was calculated from the obtained dose response curves.

[4] = molecular target: IκB-α; test: IκB-α kinase inhibition, in vitro kinase assay; format: biochemical
[5] = molecular target: T1, CDC2 (p34^cdc2) (Homo sapiens, UniProt P06493); test: CDK inhibition assay, p34cdc2 kinase (histone H1 phosphorylation); format: biochemical; conditions: 1 mg/ml histone H1, 15 μM ATP
T1 construct: made in house; host or cells: Sf9 insect cells (baculovirus co-infection)
T1 sequence (P06493 whole entry, species assumed): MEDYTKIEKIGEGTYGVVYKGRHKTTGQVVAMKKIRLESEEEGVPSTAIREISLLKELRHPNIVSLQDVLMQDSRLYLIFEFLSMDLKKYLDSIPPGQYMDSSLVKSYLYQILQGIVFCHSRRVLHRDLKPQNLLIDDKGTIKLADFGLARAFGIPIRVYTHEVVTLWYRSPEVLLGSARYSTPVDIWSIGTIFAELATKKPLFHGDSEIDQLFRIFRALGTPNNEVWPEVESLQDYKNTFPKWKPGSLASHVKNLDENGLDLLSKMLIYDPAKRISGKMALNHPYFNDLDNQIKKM
T1 sequence (P14635 whole entry partner, species assumed): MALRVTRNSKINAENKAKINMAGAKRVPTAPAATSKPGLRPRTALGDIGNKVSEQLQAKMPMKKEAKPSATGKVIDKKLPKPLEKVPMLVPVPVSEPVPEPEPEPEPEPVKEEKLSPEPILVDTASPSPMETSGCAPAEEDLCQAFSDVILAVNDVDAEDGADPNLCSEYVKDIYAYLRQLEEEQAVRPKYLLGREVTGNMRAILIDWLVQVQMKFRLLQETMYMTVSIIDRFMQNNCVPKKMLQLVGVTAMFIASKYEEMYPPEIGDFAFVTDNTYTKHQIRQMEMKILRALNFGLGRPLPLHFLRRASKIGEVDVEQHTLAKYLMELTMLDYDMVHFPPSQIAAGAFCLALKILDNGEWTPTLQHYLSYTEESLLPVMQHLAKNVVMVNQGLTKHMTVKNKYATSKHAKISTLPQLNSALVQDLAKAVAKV
Description: Cyclin-dependent kinases (p34^cdc2, p33^cdk2, p33^cdk4) and cyclins (cyclin B, E and D1) are produced in Sf9 insect cells coinfected with appropriate baculoviral constructs. The cells are harvested 68-72 hrs post infection in lysis buffer for 30 min on ice and the soluble fraction is recovered by centrifugation at 14.000 g for 10 min. The protein extract is stored at −80° C.
Lysis buffer: 50 mM Tris pH 7,4, 150 mM NaCl, 5 mM EDTA, 20 mM NaF, 1% Tween, 1 mM DTT, 0.1 mM PMSF, leupeptine, aprotomine
To carry out experiments on kinetics under linear conditions, the final point test system for kinase activity measurement is used. The kinase is added to reaction mixture in such a way as to obtain linear activity with respect to the concentration of enzyme and with respect to time.
Kinase activity is determined at 30° C. in the kinase buffer.
Tested compounds are usually dissolved to 100 mM solutions in DMSO, final concentration of DMSO in reaction mixture never exceeds 1%. The controls contain suitable dilutions of DMSO.
After 10 min, addition 3×SDS sample buffer stops the incubations. […] The measurement of kinase activity is done using digital image analysis.
The kinase activity is expressed as a percentage of maximum activity, the apparent inhibition constants are determined by graphic analysis. Kinase buffer: 50 mM Hepes pH 7.4, 10 mM MgCl2, 5 mM EGTA, 10 mM 2-glycerolphosphate, 1 mM NaF, 1 mM DTT

[6] = test system: B16 melanoma; test: In vitro cytotoxicity, MTT assay, B16; format: cell-based; conditions: Mus musculus, 72 hours
Source text: as §4, §5, §6

[7] = unit nM printed beside the value

For `CC(C)n1c(NCCO)nc2c(NCc3ccccc3)nc(NCCCO)nc21`, the IC50 [1] was 181 µM, the IC50 [2] was 29.3 µM and the IC50 [3] was > 167 µM. For the same molecule, the IC50 [4] was 153000 nM, the IC50 ([5]; 30° C., 10 min) was 144000 nM and the IC50 [6] was > 167 µM.
Molecule `CC(C)n1c(Br)nc2c(NCc3ccccc3)nc(NCCCO)nc21` [2-(3-hydroxypropylamino)-6-benzylamino-8-bromo-9-isopropypurine] has an IC50 [1] of 178 µM, an IC50 [2] of 5.9 µM and a melting point of 156 to 161 °C. For the same molecule, the IC50 [3] was 117 µM, the IC50 [4] was 24500 nM and the IC50 ([5]; 30° C., 10 min) was 12900 nM. For the same molecule, the IC50 [6] was 76.4 µM.
Molecule `COc1cccc(CNc2nc(Cl)nc3c2nc(Br)n3C(C)C)c1` [Example 3, 6-(3-Methoxybenzylamino)-2-chloro-8-bromo-9-isopropylpurine] has a melting point of 123 to 125 °C.
Work on `CC[C@H](CO)Nc1nc(NCc2ccccc2)c2nc(F)n(C(C)C)c2n1` yielded an IC50 [3] of 3.38 µM, an IC50 [4] of 1200 nM and an IC50 ([5]; 30° C., 10 min) of 380 nM. For the same molecule, the IC50 [6] was 3.2 µM.
For `CC(C)n1c(O)nc2c(NCc3ccccc3)nc(NCCCO)nc21`, the IC50 [1] was 163 µM, the IC50 [2] was 2.1 µM and the IC50 [3] was 7.48 µM. It also gave an IC50 [4] of 12600 nM, an IC50 ([5]; 30° C., 10 min) of 6480 nM and an IC50 [6] of 5.6 µM.
`Cn1c(O)nc2c(NCc3ccccc3)nc(NCCO)nc21` gave an IC50 [1] of 201 µM, an IC50 [2] of 48.6 µM and an IC50 [3] of 45.5 µM. For the same molecule, the IC50 [4] was 16200 nM, the IC50 ([5]; 30° C., 10 min) was 13500 nM and the IC50 [6] was 56.2 µM.
With `CSc1nc2c(NCc3ccccc3)nc(NCCCO)nc2n1C(C)C` [2-(3-hydroxypropylamino)-6-benzylamino-8-methylthio-9-isopropylpurine] the melting point was 64 to 67 °C, the IC50 [3] was 68.4 µM and the IC50 [6] was 60.6 µM.
Work on `CC(C)n1c(N)nc2c(NCc3ccccc3)nc(NCCCO)nc21` yielded an IC50 [1] of 143 µM, an IC50 [2] of 1.59 µM and an IC50 [3] of 8.52 µM. The IC50 [4] was 12800 nM, the IC50 ([5]; 30° C., 10 min) was 8520 nM and the IC50 [6] was 6.8 µM.
Work on `CC[C@H](CO)Nc1nc(NCc2ccccc2)c2nc(NCN)n(C(C)C)c2n1` yielded an IC50 [1] of 177 µM, an IC50 [2] of 25.8 µM and an IC50 [4] of 193000 nM. The IC50 ([5]; 30° C., 10 min) was 181000 nM.
For `Cn1c(NCCO)nc2c(NCc3ccccc3)nc(NCCO)nc21`, the IC50 [1] was ≥ 250 µM, the IC50 [2] was 169 µM and the IC50 [3] was > 167 µM. The IC50 [4] was 154000 nM, the IC50 ([5]; 30° C., 10 min) was 125000 nM and the IC50 [6] was > 167 µM.
With `Cn1c(S)nc2c(NCc3ccccc3)nc(NCCO)nc21` the IC50 [1] was ≥ 250 µM, the IC50 [2] was 83.5 µM and the IC50 [3] was 92.4 µM. The IC50 [4] was 35700 nM, the IC50 ([5]; 30° C., 10 min) was 22400 nM and the IC50 [6] was 85.7 µM.
`CC(C)[C@H](CO)Nc1nc(Nc2cccc(Cl)c2)c2nc(F)n(C(C)C)c2n1` gave an IC50 [3] of 2.5 µM, an IC50 [4, 7] of 11 nM and an IC50 [5, 7] of 3.8 nM.
